# Data taken from PubChem BioAssay (NCI).
#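 Cells were grown in 96-well plates and exposed to each compound for 48 hours at five concentrations; endpoints were interpolated linearly between bracketing concentrations, or set to the highest concentration if not reached. TGI is the concentration that stops growth completely.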
# Key:
# Test in all cases: growth of human tumour cells (NCI), 48 h
# [1] = system: HCT-15 colon
# [2] = system: U251 CNS
# [3] = system: MOLT-4 leukemia
# [4] = system: PC-3 prostate
# [5] = system: HCC-2998 colon
# [6] = system: MDA-N
# [7] = system: SR leukemia
# [8] = system: HS 578T breast
# [9] = system: HL-60(TB) leukemia
# [10] = system: TK-10 renal
# [11] = system: SK-MEL-2 melanoma
# [12] = system: OVCAR-5 ovarian
# [13] = system: DU-145 prostate
# [14] = system: NCI-H226 lung
# [15] = system: SN12C renal
# [16] = system: SK-MEL-5 melanoma
# [17] = system: NCI-H522 lung
# [18] = system: KM12 colon
# [19] = system: A549 NSCLC
# [20] = system: OVCAR-3 ovarian
# [21] = system: SF-268 CNS
# [22] = system: K-562 leukemia
# [23] = system: OVCAR-8 ovarian
# [24] = system: SW-620 colon
# [25] = system: EKVX NSCLC
# [26] = system: M14 melanoma
# [27] = system: SK-MEL-28 melanoma
# [28] = system: HCT-116 colon
# [29] = system: MDA-MB-435
# [30] = system: UACC-62 melanoma
# [31] = system: RPMI-8226 leukemia
# [32] = system: NCI-H23 lung
# [33] = system: UO-31 renal
# [34] = system: SNB-75 CNS
# [35] = system: IGROV1 ovarian
# [36] = system: SK-OV-3 ovarian
# [37] = system: SNB-19 CNS
# [38] = system: ACHN renal
# [39] = system: NCI-H460 lung
# [40] = system: SF-295 CNS
# [41] = system: BT-549 breast
# [42] = system: HOP-62 NSCLC
# [43] = system: LOX IMVI melanoma
# [44] = system: MDA-MB-231 breast
# [45] = system: MALME-3M melanoma
# [46] = system: MCF7 breast
# [47] = system: NCI/ADR-RES ovarian
# [48] = system: COLO 205 colon
# [49] = system: OVCAR-4 ovarian
# [50] = system: HT29 colon
# [51] = system: A498 renal
# [52] = system: CCRF-CEM leukemia
# [53] = system: T-47D breast
# [54] = system: SF-539 CNS
# [55] = system: 786-0 renal
# [56] = system: UACC-257 melanoma
# [57] = system: CAKI-1 renal
# [58] = system: RXF 393 renal
# [59] = system: HOP-92 NSCLC
smiles,measurement,setting,value
Cc1ccc(CC2(C(=O)O)Cc3ccc(C)cc3C2)cc1 (configuration not stated),TGI,[1],> 100 µM
same,TGI,[2],> 100 µM
same,TGI,[3],> 100 µM
same,TGI,[4],> 100 µM
same,TGI,[5],> 100 µM
same,TGI,[6],> 100 µM
same,TGI,[7],> 100 µM
same,TGI,[8],> 100 µM
same,TGI,[9],> 100 µM
same,TGI,[10],> 100 µM
same,TGI,[11],> 100 µM
same,TGI,[12],> 100 µM
same,TGI,[13],> 100 µM
same,TGI,[14],> 100 µM
same,TGI,[15],> 100 µM
same,TGI,[16],> 100 µM
same,TGI,[17],> 100 µM
same,TGI,[18],> 100 µM
same,TGI,[19],> 100 µM
same,TGI,[20],> 100 µM
same,TGI,[21],> 100 µM
same,TGI,[22],> 100 µM
same,TGI,[23],> 100 µM
same,TGI,[24],> 100 µM
same,TGI,[25],> 100 µM
same,TGI,[26],> 100 µM
same,TGI,[27],> 100 µM
same,TGI,[28],> 100 µM
same,TGI,[29],> 100 µM
same,TGI,[30],> 100 µM
same,TGI,[31],> 100 µM
same,TGI,[32],> 100 µM
same,TGI,[33],> 100 µM
same,TGI,[34],> 100 µM
same,TGI,[35],> 100 µM
same,TGI,[36],> 100 µM
same,TGI,[37],> 100 µM
same,TGI,[38],> 100 µM
same,TGI,[39],> 100 µM
same,TGI,[40],> 100 µM
same,TGI,[41],> 100 µM
same,TGI,[42],> 100 µM
same,TGI,[43],> 100 µM
same,TGI,[44],> 100 µM
same,TGI,[45],> 100 µM
same,TGI,[46],> 100 µM
same,TGI,[47],> 100 µM
same,TGI,[48],> 100 µM
same,TGI,[49],> 100 µM
same,TGI,[50],> 100 µM
same,TGI,[51],> 100 µM
same,TGI,[52],> 100 µM
same,TGI,[53],> 100 µM
same,TGI,[54],> 100 µM
same,TGI,[55],> 100 µM
same,TGI,[56],> 100 µM
same,TGI,[57],> 100 µM
CCOc1cc(C2CC(c3ccc(NS(=O)(=O)c4cc([N+](=O)[O-])ccc4C)cc3)=NN2S(=O)(=O)c2cc([N+](=O)[O-])ccc2C)ccc1O (configuration not stated),TGI,[1],> 100 µM
same,TGI,[2],> 100 µM
same,TGI,[3],> 100 µM
same,TGI,[4],> 100 µM
same,TGI,[6],> 100 µM
same,TGI,[7],> 100 µM
same,TGI,[8],> 100 µM
same,TGI,[9],> 100 µM
same,TGI,[10],> 100 µM
same,TGI,[11],62 µM
same,TGI,[12],> 100 µM
same,TGI,[13],> 100 µM
same,TGI,[14],> 100 µM
same,TGI,[15],81.3 µM
same,TGI,[16],64.8 µM
same,TGI,[17],> 100 µM
same,TGI,[18],> 100 µM
same,TGI,[19],> 100 µM
same,TGI,[20],71.5 µM
same,TGI,[21],> 100 µM
same,TGI,[22],> 100 µM
same,TGI,[23],> 100 µM
same,TGI,[24],> 100 µM
same,TGI,[25],82.2 µM
same,TGI,[26],> 100 µM
same,TGI,[27],> 100 µM
same,TGI,[28],> 100 µM
same,TGI,[29],> 100 µM
same,TGI,[31],> 100 µM
same,TGI,[32],> 100 µM
same,TGI,[33],> 100 µM
same,TGI,[35],> 100 µM
same,TGI,[36],> 100 µM
same,TGI,[37],> 100 µM
same,TGI,[38],> 100 µM
same,TGI,[40],> 100 µM
same,TGI,[41],> 100 µM
same,TGI,[42],> 100 µM
same,TGI,[43],> 100 µM
same,TGI,[44],> 100 µM
same,TGI,[45],> 100 µM
same,TGI,[46],> 100 µM
same,TGI,[47],> 100 µM
same,TGI,[48],> 100 µM
same,TGI,[49],> 100 µM
same,TGI,[50],> 100 µM
same,TGI,[51],22 µM
same,TGI,[52],> 100 µM
same,TGI,[53],65.1 µM
same,TGI,[58],70.7 µM
same,TGI,[59],60.7 µM
same,TGI,[54],> 100 µM
same,TGI,[55],98.7 µM
same,TGI,[56],> 100 µM
same,TGI,[57],> 100 µM
